# According to PubChem BioAssay AID1259407 (Chemical Carcinogenesis Research Information System (CCRIS), 2018):
# Activity calls are given as the source filed them. The rule behind the calls is not given here.
# Tested on: CCRIS mutagenicity, Ames/micronucleus/aberration tests
# Assay: CCRIS mutagenicity studies
# [1] = Test System: AMES SALMONELLA TYPHIMURIUM, Strain/Indicator: TA98, Metabolic Activation: NONE, Method: STANDARD PLATE
# [2] = Test System: AMES SALMONELLA TYPHIMURIUM, Strain/Indicator: TA100, Metabolic Activation: NONE, Method: STANDARD PLATE
# [3] = Test System: AMES SALMONELLA TYPHIMURIUM, Strain/Indicator: TA1535, Metabolic Activation: NONE, Method: STANDARD PLATE
# [4] = Test System: AMES SALMONELLA TYPHIMURIUM, Strain/Indicator: TA98, Metabolic Activation: NONE, Method: PREINCUBATION
# [5] = Test System: AMES SALMONELLA TYPHIMURIUM, Strain/Indicator: TA100, Metabolic Activation: NONE, Method: PREINCUBATION
compound,measurement,setting,value
Nc1ccc(-c2ccc(N)c(O)c2)cc1O,mutagenic call,[1],inactive; negative
same,mutagenic call,"Test System: AMES SALMONELLA TYPHIMURIUM, Strain/Indicator: TA98, Metabolic Activation: RAT, LIVER, S-9, AROCLOR, Method: STANDARD PLATE",inactive; negative
same,mutagenic call,[2],active; positive (weak)
same,mutagenic call,"Test System: AMES SALMONELLA TYPHIMURIUM, Strain/Indicator: TA100, Metabolic Activation: RAT, LIVER, S-9, AROCLOR, Method: STANDARD PLATE",active; positive (weak)
same,mutagenic call,[3],inactive; negative
same,mutagenic call,"Test System: AMES SALMONELLA TYPHIMURIUM, Strain/Indicator: TA1535, Metabolic Activation: RAT, LIVER, S-9, AROCLOR, Method: STANDARD PLATE",inactive; negative
same,mutagenic call,"Test System: AMES SALMONELLA TYPHIMURIUM, Strain/Indicator: TA1537, Metabolic Activation: NONE, Method: STANDARD PLATE",inactive; negative
same,mutagenic call,"Test System: AMES SALMONELLA TYPHIMURIUM, Strain/Indicator: TA1537, Metabolic Activation: RAT, LIVER, S-9, AROCLOR, Method: STANDARD PLATE",inactive; negative
[B-],mutagenic call,[4],inactive; negative
same,mutagenic call,"Test System: AMES SALMONELLA TYPHIMURIUM, Strain/Indicator: TA98, Metabolic Activation: RAT LIVER S-9, PHENOBARBITAL AND BETA-NAPHTHOFLAVONE, Method: PREINCUBATION",inactive; negative
same,mutagenic call,[5],inactive; negative
same,mutagenic call,"Test System: AMES SALMONELLA TYPHIMURIUM, Strain/Indicator: TA100, Metabolic Activation: RAT LIVER S-9, PHENOBARBITAL AND BETA-NAPHTHOFLAVONE, Method: PREINCUBATION",inactive; negative
same,mutagenic call,"Test System: AMES SALMONELLA TYPHIMURIUM, Strain/Indicator: TA1535, Metabolic Activation: NONE, Method: PREINCUBATION",inactive; negative
same,mutagenic call,"Test System: AMES SALMONELLA TYPHIMURIUM, Strain/Indicator: TA1535, Metabolic Activation: RAT LIVER S-9, PHENOBARBITAL AND BETA-NAPHTHOFLAVONE, Method: PREINCUBATION",inactive; negative
same,mutagenic call,"Test System: AMES SALMONELLA TYPHIMURIUM, Strain/Indicator: TA1537, Metabolic Activation: NONE, Method: PREINCUBATION",inactive; negative
same,mutagenic call,"Test System: AMES SALMONELLA TYPHIMURIUM, Strain/Indicator: TA1537, Metabolic Activation: RAT LIVER S-9, PHENOBARBITAL AND BETA-NAPHTHOFLAVONE, Method: PREINCUBATION",inactive; negative
same,mutagenic call,"Test System: AMES SALMONELLA TYPHIMURIUM, Strain/Indicator: TA1538, Metabolic Activation: NONE, Method: PREINCUBATION",inactive; negative
same,mutagenic call,"Test System: AMES SALMONELLA TYPHIMURIUM, Strain/Indicator: TA1538, Metabolic Activation: RAT LIVER S-9, PHENOBARBITAL AND BETA-NAPHTHOFLAVONE, Method: PREINCUBATION",inactive; negative
same,mutagenic call,"Test System: E.COLI, Strain/Indicator: WP2UVRA, Metabolic Activation: NONE, Method: PREINCUBATION",inactive; negative
same,mutagenic call,"Test System: E.COLI, Strain/Indicator: WP2UVRA, Metabolic Activation: RAT LIVER S-9, PHENOBARBITAL AND BETA-NAPHTHOFLAVONE, Method: PREINCUBATION",inactive; negative
Oc1cc2c3c(cc4cccc5ccc1c3c54)-c1ccccc1-2,mutagenic call,"Test System: AMES SALMONELLA TYPHIMURIUM, Strain/Indicator: TA100, Metabolic Activation: RAT, LIVER, S-9, AROCLOR 1254, Method: STANDARD PLATE",inactive; negative
C/C=C(\C)C(=O)O[C@H]1C[C@@H](OC(C)=O)[C@@]2(C(=O)OC)CO[C@H]3[C@@H](O)[C@@](C)([C@]45O[C@@]4(C)[C@H]4C[C@@H]5O[C@@H]5OC=C[C@@]54O)[C@H]4[C@]1(CO[C@]4(O)C(=O)OC)[C@@H]32,mutagenic call,"End Point: IN VIVO CHROMOSOMAL ABERRATIONS, Test System: BONE MARROW, Species: MOUSE, Strain/Sex: SWR/J/MALE,FEMALE, Route: ORAL (GAVAGE)",inactive; negative
same,mutagenic call,"End Point: In vivo chromosomal aberrations, Test System: Bone marrow cells, Species: Mouse, Strain/Sex: Swiss/Male, Route: Oral",active; positive (structural changes)
COc1cccc2c1C(=O)c1c(O)c3c(c(O)c1C2=O)C[C@@](O)(C(C)=O)C[C@@H]3O[C@H]1C[C@H](N)[C@H](O)[C@H](C)O1,mutagenic call,"End Point: In vitro micronucleus, Test System: Human lymphoblastoid TK6 cells, Metabolic Activation: None",active; positive (p<0.001)
same,mutagenic call,"Test System: AMES SALMONELLA TYPHIMURIUM, Strain/Indicator: GW257, Metabolic Activation: NONE, Method: STANDARD PLATE",active; positive
same,mutagenic call,"Test System: AMES SALMONELLA TYPHIMURIUM, Strain/Indicator: TA97, Metabolic Activation: NONE, Method: STANDARD PLATE",inactive; negative
same,mutagenic call,[4],active; positive
same,mutagenic call,[1],active; positive
same,mutagenic call,"Test System: AMES SALMONELLA TYPHIMURIUM, Strain/Indicator: TA98, Metabolic Activation: RAT, LIVER, S-9, AROCLOR 1254, Method: STANDARD PLATE",active; positive
same,mutagenic call,"Test System: AMES SALMONELLA TYPHIMURIUM, Strain/Indicator: TA98, Metabolic Activation: RAT, LIVER, S-9, KC500 OR PHENOBARBITAL, Method: LIQUID SUSPENSION",active; positive
same,mutagenic call,[2],active; positive
same,mutagenic call,"Test System: AMES SALMONELLA TYPHIMURIUM, Strain/Indicator: TA100, Metabolic Activation: RAT, LIVER, S-9, KC500 OR PHENOBARBITAL, Method: LIQUID SUSPENSION",active; positive
same,mutagenic call,"Test System: AMES SALMONELLA TYPHIMURIUM, Strain/Indicator: TA102, Metabolic Activation: NONE, Method: STANDARD PLATE",active; positive
same,mutagenic call,"Test System: AMES SALMONELLA TYPHIMURIUM, Strain/Indicator: TA104, Metabolic Activation: NONE, Method: STANDARD PLATE",inactive; negative
same,mutagenic call,[3],inactive; negative
same,mutagenic call,"Test System: AMES SALMONELLA TYPHIMURIUM, Strain/Indicator: TA1538, Metabolic Activation: NONE, Method: STANDARD PLATE",active; positive
same,mutagenic call,"Test System: AMES SALMONELLA TYPHIMURIUM, Strain/Indicator: TA1978/PKM101, Metabolic Activation: NONE, Method: STANDARD PLATE",active; positive
same,mutagenic call,"Test System: AMES SALMONELLA TYPHIMURIUM, Strain/Indicator: TA1978, Metabolic Activation: NONE, Method: STANDARD PLATE",inactive; negative
same,mutagenic call,"Test System: AMES SALMONELLA TYPHIMURIUM, Strain/Indicator: TA2637, Metabolic Activation: NONE, Method: STANDARD PLATE",active; positive
same,mutagenic call,"Test System: AMES SALMONELLA TYPHIMURIUM, Strain/Indicator: TA2638, Metabolic Activation: NONE, Method: STANDARD PLATE",active; positive
same,mutagenic call,"Test System: CHINESE HAMSTER V-79, Strain/Indicator: V-79/6-THIOGUANINE, Metabolic Activation: NONE, Method: SUSPENSION/PLATE",inactive; negative
same,mutagenic call,"Test System: CHINESE HAMSTER V-79, Strain/Indicator: V-79/6-THIOGUANINE, Metabolic Activation: RAT, LIVER, HOMOGENATE, Method: SUSPENSION/PLATE",inactive; negative
same,mutagenic call,"Test System: CHINESE HAMSTER V-79, Strain/Indicator: V-79/8-AZAGUANINE, Metabolic Activation: NONE, Method: STANDARD PLATE",active; positive
same,mutagenic call,"Test System: E. COLI, Strain/Indicator: WP2 (HCR), Metabolic Activation: NONE, Method: STANDARD PLATE",inactive; negative
same,mutagenic call,"Test System: E. COLI, Strain/Indicator: WP2 (PKM101), Metabolic Activation: NONE, Method: STANDARD PLATE",active; positive
same,mutagenic call,"Test System: E. COLI, Strain/Indicator: WP2 UVRA (PKM101), Metabolic Activation: NONE, Method: STANDARD PLATE",active; positive
same,mutagenic call,"Test System: UDS RAT HEPATOCYTES, Strain/Indicator: THY INCORP, Metabolic Activation: NONE, Method: AUTOMATIC COLONY COUNTER",active; positive
O=[N+]([O-])c1ccc2snc(Cl)c2c1,mutagenic call,[2],active; positive
Nc1nc(-c2ccccc2)c(Br)c(=O)[nH]1,mutagenic call,"Test System: CHINESE HAMSTER OVARY, Strain/Indicator: CHO (HGPRT), Metabolic Activation: RAT, LIVER, S-9, AROCLOR 1254",active; positive
same,mutagenic call,"Test System: MOUSE LYMPHOMA, Strain/Indicator: L5178Y (TK+/TK-), Metabolic Activation: NONE, Method: SUSPENSION/PLATE",inactive; negative
same,mutagenic call,"Test System: MOUSE LYMPHOMA, Strain/Indicator: L5178Y (TK+/TK-), Metabolic Activation: RAT, LIVER, S-9, AROCLOR 1254, Method: SUSPENSION/PLATE",inactive; negative
CC1=C(O)C(=O)CC1,mutagenic call,[4],inactive; negative
same,mutagenic call,"Test System: AMES SALMONELLA TYPHIMURIUM, Strain/Indicator: TA98, Metabolic Activation: RAT, LIVER, S-9, AROCLOR 1254, Method: PREINCUBATION",inactive; negative
same,mutagenic call,[5],inactive; negative
same,mutagenic call,"Test System: AMES SALMONELLA TYPHIMURIUM, Strain/Indicator: TA100, Metabolic Activation: RAT, LIVER, S-9, AROCLOR 1254, Method: PREINCUBATION",inactive; negative
same,mutagenic call,"Test System: AMES SALMONELLA TYPHIMURIUM, Strain/Indicator: TA102, Metabolic Activation: NONE, Method: PREINCUBATION",inactive; negative
same,mutagenic call,"Test System: AMES SALMONELLA TYPHIMURIUM, Strain/Indicator: TA102, Metabolic Activation: RAT, LIVER, S-9, AROCLOR 1254, Method: PREINCUBATION",inactive; negative
